Experimental findings from US20260049105A1, “SELECTIVE MC4R LIGAND FOR TREATING OBESITY AND COGNITIVE LOSS” (ARIZONA BOARD OF REGENTS ON BEHALF OF THE UNIVERSITY OF …, priority 2022, published 2026) are described below.

In assay [1] the target is T1, hMC4R (Homo sapiens, UniProt P32245).
T1 construct: expressed in transfected cells; host or cells: HEK293
Put plainly: Plasmon waveguide resonance (PWR) spectrum of hMC4R membranes with agonists.

The target in assay [2] is T2, hMC1R (Homo sapiens, UniProt Q01726).
T2 construct: expressed in transfected cells; host or cells: HEK293
T2 sequence (Q01726 whole entry): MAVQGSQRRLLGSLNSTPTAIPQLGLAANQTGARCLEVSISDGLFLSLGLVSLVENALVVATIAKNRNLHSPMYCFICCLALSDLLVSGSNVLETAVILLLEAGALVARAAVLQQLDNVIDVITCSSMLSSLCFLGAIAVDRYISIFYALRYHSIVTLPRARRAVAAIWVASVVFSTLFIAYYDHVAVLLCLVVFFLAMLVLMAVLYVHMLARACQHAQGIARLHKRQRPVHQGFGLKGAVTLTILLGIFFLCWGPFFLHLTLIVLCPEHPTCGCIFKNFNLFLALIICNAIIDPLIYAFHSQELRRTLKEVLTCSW
Kind of assay: Competitive receptor binding assay, whole HEK293 cells, 125I-NDP-α-MSH. The note with it: for inhibition at 10 µM: 40 min, hM1CR, percentage of NDP-α-MSH displacement at 10 μM, read-out: BE %; for hMC1R binding affinity (in words): compared with the other analogues. As to the method: [The procedure below names another target; the source lists this target under the same test.] (§1) Competition binding experiments were performed on whole cells. The transfected HEK293 cell line with hMC4Rs were seeded on 96 well plates, 48 hours before the assay, 100,000 cells/well. For the assay, the medium was removed and cells were washed twice with a freshly prepared binding buffer containing 100% minimum essential medium with Earle's salt (MEM, GIBCO), 25 mM HEPES (pH 7.4), 0.2% bovine serum albumin, 1 mM 1,10-phenanthroline, 0.5 mg/L leupeptin, and 200 mg/L bacitracin. […] The medium was subsequently removed and each well was washed twice with the assay buffer. The cells are lysed by the addition of 250 μL of 0.1 NaOH and 250 μL of 1% Triton X-100. The lysed cell was transferred to the 12×75 mm glass tubes and the radioactivity was measured by Wallac 1470 WIZARD Gamma Counter. Data were analyzed using Graphpad Prism 6.0 (Graphpad Software, San Diego, CA).
(§2) IC50 and EC50 values represent the mean of duplicate experiments performed in triplicate. IC50 and EC50 estimates and their associated standard errors were determined by fitting the data using nonlinear least-squares analysis, with the help of Graphpad Prism 6.0 (Graphpad Software, San Diego, CA).
(§3) NA indicates 0% cAMP accumulation observed at 10 μM. The peptides were tested over a range of concentrations from 10^-10 to 10^-5 M.

In assay [3] the target is T3, hMC3R (Homo sapiens, UniProt P41968).
T3 construct: expressed in transfected cells; host or cells: HEK293
T3 sequence (P41968 whole entry): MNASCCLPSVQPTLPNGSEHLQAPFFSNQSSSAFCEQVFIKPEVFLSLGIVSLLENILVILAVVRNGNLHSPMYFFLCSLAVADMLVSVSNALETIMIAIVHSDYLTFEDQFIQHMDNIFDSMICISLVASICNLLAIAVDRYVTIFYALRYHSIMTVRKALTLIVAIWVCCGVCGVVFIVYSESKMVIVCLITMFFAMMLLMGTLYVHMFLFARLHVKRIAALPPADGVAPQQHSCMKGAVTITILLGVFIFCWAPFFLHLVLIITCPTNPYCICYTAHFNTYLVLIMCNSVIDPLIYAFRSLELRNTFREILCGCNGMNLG
The assay is described as above. The note with it: 40 min; hM3CR; percentage of NDP-α-MSH displacement at 10 μM; read-out: BE %. As to the method: [The procedure below names another target; the source lists this target under the same test.] as §1, §2, §3

Assay [4] deals with T1, hMC4R. Described as above. The note with it: 40 min; hM4CR; percentage of [125I]NDP-α-MSH displacement at 10 μM; read-out: BE%. As to the method:
as §1, with “The lysed cell was transferred to the 12×75 mm glass tubes and the radioactivity was measured by Wallac 1470 WIZARD Gamma Counter.” left out
IC50 and EC50 values represent the mean of duplicate experiments performed in triplicate. IC50 and EC50 estimates and their associated standard errors were determined by fitting the data using nonlinear least-squares analysis, with the help of Graphpad Prism 6.0 (Graphpad Software, San Diego, CA). […]

For assay [5], the target named is T1, hMC4R. Kind of assay: Adenylate cyclase (cAMP) assay in transfected HEK293 cells. The class given is cell-based. The note with it: HEK293, 0.05 h; hM4CR; percentage of cAMP produced at 10 μM in relation to MT-II; read-out: Act%. Here is the method:
The cells were seeded on 96 well plates 48 hours before the assay, (100,000 cells/well). For the assay, the medium was removed and cells were rinsed with 1 mL of MEM buffer (GIBCO) or with Earle's balanced salt solution (EBSS, GIBCO). An aliquot (0.4 mL) of Earle's balanced salt solution was placed in each well along with isobutylmethylxanthine (IBMX; 5 μL; 0.5 mM) for 1 minute at 37° C. Varying concentrations of melanotropins (0.1 mL) were added and the cells incubated for 3 minutes at 37° C. The reaction was stopped by aspirating the buffer and adding ice-cold Tris/EDTA buffer to each well (0.15 mL). The 96 well plates were covered and placed on ice. After dislodging the cells, the plates were placed in a boiling water bath for 15 minutes. The cell lysate was then centrifuged for 10 minutes (4000 rpm), and 50 μL of the supernatant was aliquoted into perkinElmer glass fiber filter plate. cAMP content was measured by competitive binding assay in addition to 50 μL H^3 cAMP and 100 μL PKA. Then the system was placed on ice for 2 hours and then vacuum and filtered. 100 μL of the OptiPhase Supermix scintillation fluid was added to the plate. The plates stayed for 8 hours and then read by MicroBeta radiation plate reader. IC50 and EC50 values represent the mean of duplicate experiments performed in triplicate. […] NA indicates 0% cAMP accumulation observed at 10 μM. The peptides were tested over a range of concentrations from 10^-10 to 10^-5 M.

Assay [6] addresses T4, hMC5R (Homo sapiens, UniProt P33032).
T4 construct: expressed in transfected cells; host or cells: HEK293
Kind of assay: Competitive receptor binding assay, whole HEK293 cells, 125I-NDP-α-MSH. The note with it: 40 min; hM5CR; percentage of NDP-α-MSH displacement at 10 μM; read-out: BE %. As to the method:
[The procedure below names another target; the source lists this target under the same test.] as §1, with “The lysed cell was transferred to the 12×75 mm glass tubes and the radioactivity was measured by Wallac 1470 WIZARD Gamma Counter.” left out
as §2, §3

Assay [7] deals with T2, hMC1R. Kind of assay: Adenylate cyclase (cAMP) assay in transfected HEK293 cells. The note with it: HEK293, 0.05 h; hM1CR; cAMP at 10 μM in relation to MT-II; read-out: Act %. The class given is cell-based. As to the method:
(§4) HEK293 cells transfected with human melanocortin receptors were grown to confluence in MEM medium (GIBCO) containing 10% fetal bovine serum, 100 units/mL penicillin and streptomycin, and 1 mM sodium pyruvate. The cells were seeded on 96 well plates 48 hours before the assay, (100,000 cells/well). For the assay, the medium was removed and cells were rinsed with 1 mL of MEM buffer (GIBCO) or with Earle's balanced salt solution (EBSS, GIBCO). An aliquot (0.4 mL) of Earle's balanced salt solution was placed in each well along with isobutylmethylxanthine (IBMX; 5 μL; 0.5 mM) for 1 minute at 37° C. Varying concentrations of melanotropins (0.1 mL) were added and the cells incubated for 3 minutes at 37° C. The reaction was stopped by aspirating the buffer and adding ice-cold Tris/EDTA buffer to each well (0.15 mL). The 96 well plates were covered and placed on ice. After dislodging the cells, the plates were placed in a boiling water bath for 15 minutes. The cell lysate was then centrifuged for 10 minutes (4000 rpm), and 50 μL of the supernatant was aliquoted into perkinElmer glass fiber filter plate. cAMP content was measured by competitive binding assay in addition to 50 μL H^3 cAMP and 100 μL PKA. Then the system was placed on ice for 2 hours and then vacuum and filtered. 100 μL of the OptiPhase Supermix scintillation fluid was added to the plate. The plates stayed for 8 hours and then read by MicroBeta radiation plate reader.
as §2, §3

The target of assay [8] is T3, hMC3R. The assay is described as above. The class given is cell-based. The note with it: HEK293, 0.05 h; hM3CR; cAMP at 10 μM in relation to MT-II; read-out: Act %. Here is the method:
as §4, §2, §3

For assay [9], the target named is T4, hMC5R. Described as above. The note with it: HEK293, 0.05 h; hM5CR; cAMP at 10 μM in relation to MT-II; read-out: Act %. The class given is cell-based. As to the method:
as §4, §2, §3

T4 sequence (P33032 whole entry): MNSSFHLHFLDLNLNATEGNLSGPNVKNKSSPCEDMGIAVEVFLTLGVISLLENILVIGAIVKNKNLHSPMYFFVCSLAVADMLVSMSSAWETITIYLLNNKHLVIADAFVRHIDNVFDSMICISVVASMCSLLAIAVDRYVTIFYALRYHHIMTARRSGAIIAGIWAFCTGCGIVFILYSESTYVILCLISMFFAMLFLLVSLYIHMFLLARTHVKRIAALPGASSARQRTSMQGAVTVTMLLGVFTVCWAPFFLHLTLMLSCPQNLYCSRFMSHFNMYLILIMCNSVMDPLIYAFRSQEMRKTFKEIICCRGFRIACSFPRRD
T1 sequence (P32245 whole entry): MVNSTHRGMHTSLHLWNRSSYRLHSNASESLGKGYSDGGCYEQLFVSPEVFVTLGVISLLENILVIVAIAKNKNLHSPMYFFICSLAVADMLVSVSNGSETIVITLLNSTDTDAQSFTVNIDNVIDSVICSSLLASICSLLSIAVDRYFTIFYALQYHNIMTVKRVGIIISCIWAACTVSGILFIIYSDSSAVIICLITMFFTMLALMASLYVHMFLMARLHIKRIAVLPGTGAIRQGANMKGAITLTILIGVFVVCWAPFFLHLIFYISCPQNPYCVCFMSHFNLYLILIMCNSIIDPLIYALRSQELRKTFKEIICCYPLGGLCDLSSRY

`CC(=O)N[C@@H](CCCNC(=N)N)C(=O)N[C@H]1CSSC[C@@H](C(N)=O)NC(=O)[C@H](Cc2c[nH]c3ccccc23)NC(=O)[C@H](CCCNC(=N)N)NC(=O)[C@@H](Cc2ccccc2)NC(=O)[C@H](Cc2c[nH]cn2)NC(=O)[C@@H](C)NC1=O` [RM493, reference compound]: on hMC4R [1] (p-polarization, left shifted), the “PWR left shift under p-polarization relative to hMC4R sole” value was found to be 0.25 degrees. In addition, the “PWR absorbance location under s-polarization” value at hMC4R [1] (s-polarization, sole MC4R 33.29) is recorded as 32.97.
On to `CC(=O)N[C@@H](CCCNC(=N)N)C(=O)N[C@H]1CC(=O)NCCCC[C@@H](C(N)=O)NC(=O)[C@H](Cc2c[nH]c3ccccc23)NC(=O)C[C@H](CCCNC(=N)N)NC(=O)[C@@H](Cc2ccccc2)NC(=O)[C@@H]2CCCCN2C1=O` [compound 2, Ac-Arg-cyclo[Asp-Pip-D-Phe-βArg-Trp-Lys]-NH2], for which the inhibition at 10 µM on hMC1R [2] was found to be 100%; on hMC3R [3], 24%; on hMC4R [4], 100%; at hMC5R [6], 0%. In addition, the Emax at 10 µM on hMC4R [5] came to 67%; on hMC1R [7] it was 120%; on hMC3R [8], 89%; at hMC5R [9], 90%.
Consider `CC(=O)N[C@@H](CCCNC(=N)N)C(=O)N[C@H]1CC(=O)NCCCC[C@@H](C(N)=O)NC(=O)C[C@H](Cc2c[nH]c3ccccc23)NC(=O)C[C@H](CCCNC(=N)N)NC(=O)[C@@H](Cc2ccccc2)NC(=O)[C@@H]2CCCCN2C1=O` [compound 3, Ac-Arg-cyclo[Asp-Pip-D-Phe-βArg-BTrp-Lys]-NH2], for which the inhibition at 10 µM is 30% at hMC1R [2], 100% on hMC3R [3], 100% on hMC4R [4] and 46% on hMC5R [6]. Besides, the “hMC1R binding affinity (in words)” value on hMC1R [2] is recorded as “lower binding affinities than the others”. Further, the Emax at 10 µM was found to be 84% on hMC4R [5], 82% on hMC1R [7], 87% on hMC3R [8] and 82% on hMC5R [9].
As for `CC(=O)N[C@@H](CCCNC(=N)N)C(=O)N[C@H]1CC(=O)NCCCC[C@@H](C(N)=O)NC(=O)C[C@H](Cc2c[nH]c3ccccc23)NC(=O)[C@H](CCCNC(=N)N)NC(=O)[C@@H](Cc2ccc(F)cc2)NC(=O)[C@@H]2CCCCN2C1=O` [compound 4, Ac-Arg-cyclo[Asp-Pip-D-Phe(4-F)-Arg-BTrp-Lys]-NH2], the inhibition at 10 µM was determined as 100% at hMC1R [2], 100% at hMC3R [3], 9% on hMC4R [4] and 100% on hMC5R [6]. Besides, the Emax at 10 µM turned out to be 46% at hMC4R [5], 90% on hMC1R [7], 76% on hMC3R [8] and 72% on hMC5R [9].
Regarding `CC(=O)N[C@@H](CCCNC(=N)N)C(=O)N[C@H]1CC(=O)NCCCC[C@@H](C(N)=O)NC(=O)C[C@H](Cc2c[nH]c3ccccc23)NC(=O)C[C@H](CCCNC(=N)N)NC(=O)[C@@H](Cc2ccc(F)cc2)NC(=O)[C@@H]2CCCCN2C1=O` [compound 6, Ac-Arg-cyclo[Asp-Pip-D-Phe(4-F)-βArg-BTrp-Lys]-NH2], the inhibition at 10 µM stood at 0% at hMC1R [2], 39% on hMC3R [3], 59% on hMC4R [4] and 90% at hMC5R [6]. Moreover, the “hMC1R binding affinity (in words)” value at hMC1R [2] is on record as “lower binding affinities than the others”. The Emax at 10 µM on hMC4R [5] was 120%; at hMC1R [7], 61%; on hMC3R [8], 49%; at hMC5R [9], 51%.
For `CC(=O)N[C@@H](CCCNC(=N)N)C(=O)N[C@H]1CC(=O)NCCCC[C@@H](C(N)=O)NC(=O)C[C@H](Cc2c[nH]c3ccccc23)NC(=O)[C@H](CCCNC(=N)N)NC(=O)[C@@H](Cc2ccc(Cl)cc2)NC(=O)[C@@H]2CCCCN2C1=O` [compound 7, Ac-Arg-cyclo[Asp-Pip-D-Phe(4-Cl)-Arg-BTrp-Lys]-NH2], the inhibition at 10 µM amounted to 100% on hMC1R [2], 70% on hMC3R [3], 100% at hMC4R [4] and 0% at hMC5R [6]. The Emax at 10 µM was found to be 57% at hMC4R [5], 67% on hMC1R [7], 24% at hMC3R [8] and 21% at hMC5R [9].
Turning to `CC(=O)N[C@@H](CCCNC(=N)N)C(=O)N[C@H]1CC(=O)NCCCC[C@@H](C(N)=O)NC(=O)[C@H](Cc2c[nH]c3ccccc23)NC(=O)C[C@H](CCCNC(=N)N)NC(=O)[C@@H](Cc2ccc(Cl)cc2)NC(=O)[C@@H]2CCCCN2C1=O` [compound 8, Ac-Arg-cyclo[Asp-Pip-D-Phe(4-Cl)-βArg-Trp-Lys]-NH2], the inhibition at 10 µM is 100% on hMC1R [2], 100% on hMC3R [3], 100% on hMC4R [4] and 0% at hMC5R [6]. Moreover, the Emax at 10 µM worked out at 66% at hMC4R [5], 89% at hMC1R [7], 46% on hMC3R [8] and 38% on hMC5R [9].
